In patent US9522888B2, “Substituted bicyclic compounds” (BRISTOL-MYERS SQUIBB COMPANY, priority 2014, dated 2016):

Assays:
human S1P1 = human S1P1 (Homo sapiens (Human), UniProt P21453); assay: S1P1 binding assay (33P-S1P radioligand competition, CHO cell membranes); conditions: phosphate examples; read-out: S1P1 Binding
Procedure: Membranes were prepared from CHO cells expressing human S1P1. Cells pellets (1×10^9 cells/pellet) were suspended in buffer containing 20 mM HEPES (4-(2-hydroxyethyl)-1-piperazineethanesulfonic acid), pH 7.5, 50 mM NaCl, 2 mM EDTA (Ethylenediaminetetraacetic acid) and Protease Inhibitor cocktail (Roche), and disrupted on ice using the Polytron homogenizer. The homogenate was centrifuged at 20,000 rpm (48,000 g) and the supernatant was discarded. The membrane pellets were resuspended in buffer containing 50 mM HEPES, pH 7.5, 100 mM NaCl, 1 mM MgCl2, 2 mM EDTA and stored in aliquots at −80° C. after protein concentration determination.

[1] = molecular target: S1P1 (membranes prepared from S1P1/CHO cells) (Homo sapiens (Human), UniProt P21453); assay: Receptor [35S] GTPγS binding assay (S1P1 GTPγS); format: biochemical; conditions: phosphate examples; read-out: S1P1 GTPγS
Procedure: (§1) Receptor [^35S] GTPγS Binding Assays: (S1P1 GTPγS/S1P3 GTPγS)
Compounds were loaded in a 384 Falcon v-bottom plate (0.5 μl/well in a 11 point, 3-fold dilution). Membranes prepared from S1P1/CHO cells or EDG3-Gal5-bla HEK293T cells (EDG3 equivalent S1P3) were added to the compound plate (40 μl/well, final protein 3 μg/well) with MULTIDROP®. [^35S] GTP (1250 Ci/mmol, Perkin Elmer) was diluted in assay buffer: 20 mM HEPES, pH7.5, 10 mM MgCl2, 150 mM NaCl, 1 mM EGTA (ethylene glycol tetraacetic acid), 1 mM DTT (Dithiothreitol), 10 μM GDP, 0.1% fatty acid free BSA, and 10 μg/ml Saponin to 0.4 nM. 40 μl of the [^35S] GTP solution was added to the compound plate with a final concentration of 0.2 nM. The reaction was kept at room temperature for 45 min. At the end of incubation, all the mixtures in the compound plate were transferred to Millipore 384-well FB filter plates via the VELOCITY11® Vprep liquid handler. The filter plate was washed with water 4 times by using the manifold Embla plate washer and dried at 60° C. for 45 min. MicroScint 20 scintillation fluid (30 μl) was added to each well for counting on the Packard TOPCOUNT®. […]

[2] = molecular target: S1P3 (membranes prepared from EDG3-Gal5-bla HEK293T cells) (Homo sapiens (Human), UniProt Q99500); assay: Receptor [35S] GTPγS binding assay (S1P3 GTPγS); format: biochemical; conditions: phosphate examples; read-out: S1P3 GTPγS
Procedure: as §1
Compounds were loaded in a 384 Falcon v-bottom plate (0.5 μl/well in a 11 point, 3-fold dilution). Membranes prepared from S1P1/CHO cells or EDG3-Gal5-bla HEK293T cells (EDG3 equivalent S1P3) were added to the compound plate (40 μl/well, final protein 3 μg/well) with MULTIDROP®. [^35S] GTP (1250 Ci/mmol, Perkin Elmer) was diluted in assay buffer: 20 mM HEPES, pH7.5, 10 mM MgCl2, 150 mM NaCl, 1 mM EGTA (ethylene glycol tetraacetic acid), 1 mM DTT (Dithiothreitol), 10 μM GDP, 0.1% fatty acid free BSA, and 10 μg/ml Saponin to 0.4 nM. 40 μl of the [^35S] GTP solution was added to the compound plate with a final concentration of 0.2 nM. The reaction was kept at room temperature for 45 min. At the end of incubation, all the mixtures in the compound plate were transferred to Millipore 384-well FB filter plates via the VELOCITY11® Vprep liquid handler. The filter plate was washed with water 4 times by using the manifold Embla plate washer and dried at 60° C. for 45 min. MicroScint 20 scintillation fluid (30 μl) was added to each well for counting on the Packard TOPCOUNT®.
A smaller value for GTPγS S1P1 EC50 value indicated greater activity for the compound in the GTPγS S1P1 binding assay. A larger value for the GTPγS S1P3 EC50 value indicated less activity in the GTPγS S1P3 binding assay. […] Thus the compounds of the present invention may be used in treating, preventing, or curing various S1P1 receptor-related conditions while reducing or minimizing the side effects due to S1P3 activity. The selectivity of the compounds of the present invention indicate their potential use in treating, preventing, or curing autoimmune and inflammatory diseases such as multiple sclerosis, rheumatoid arthritis, inflammatory bowel disease, lupus, psoriasis, or vascular diseases, while reducing or minimizing possible side effects due to S1P3 activity. Other potential uses of the compounds of the present invention include minimizing or reducing rejection of transplanted organs, while reducing or minimizing side effects due to S1P3 activity.

hS1P1/CHO cells = hS1P1/CHO cells (Homo sapiens (Human), UniProt P21453); assay: hS1P1 ERK phosphorylation (S1P1 pERK); format: cell-based; conditions: phosphate examples
Procedure: hS1P1 ERK Phosphorylation (S1P1 pERK)
hS1P1/CHO cells were plated into BD Amine 384-well plates the day before the assay. On the day of the assay, growth medium was removed and replaced with serum-free medium (Ham's F-12 Invitrogen) and incubated for 2 hours. Test compounds pre-diluted in HBSS (Gibco)/20 mM HEPES (Gibco) were transferred to the cell plates and incubated for 7 minutes at 37° C. Cells were lysed in lysis buffer (Perkin Elmer) and phospho-ERK was measured using the SureFire pERK kit (Perkin Elmer) as described by the manufacturer. Data was plotted as percentage activation of the test compound relative to the efficacy of 10 μM S1P.

hS1P1/CHO cells, sequence (P21453 whole entry): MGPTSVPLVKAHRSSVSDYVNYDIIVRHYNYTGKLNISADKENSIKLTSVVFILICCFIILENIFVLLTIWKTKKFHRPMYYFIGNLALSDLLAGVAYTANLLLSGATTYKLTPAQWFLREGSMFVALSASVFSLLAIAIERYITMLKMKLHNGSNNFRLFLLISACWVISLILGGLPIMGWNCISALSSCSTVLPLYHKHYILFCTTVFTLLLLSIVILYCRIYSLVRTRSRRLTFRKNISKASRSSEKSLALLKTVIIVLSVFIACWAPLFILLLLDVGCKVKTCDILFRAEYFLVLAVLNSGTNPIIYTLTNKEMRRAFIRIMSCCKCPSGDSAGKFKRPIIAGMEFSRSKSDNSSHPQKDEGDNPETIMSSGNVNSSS
S1P1 (membranes prepared from S1P1/CHO cells), sequence (P21453 whole entry): as above
human S1P1, sequence (P21453 whole entry): as above
S1P3 (membranes prepared from EDG3-Gal5-bla HEK293T cells), sequence (Q99500 whole entry): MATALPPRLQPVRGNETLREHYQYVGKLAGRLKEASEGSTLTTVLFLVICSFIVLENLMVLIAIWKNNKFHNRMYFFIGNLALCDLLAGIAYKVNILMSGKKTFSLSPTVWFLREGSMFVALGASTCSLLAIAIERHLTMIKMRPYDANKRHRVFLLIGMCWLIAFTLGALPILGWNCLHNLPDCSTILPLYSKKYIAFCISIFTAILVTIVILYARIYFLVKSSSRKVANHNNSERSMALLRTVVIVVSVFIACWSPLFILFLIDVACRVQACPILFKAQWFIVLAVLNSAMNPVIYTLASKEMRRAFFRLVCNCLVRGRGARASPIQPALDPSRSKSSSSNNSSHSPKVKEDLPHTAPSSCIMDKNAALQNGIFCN

Structure (SMILES)	IC50 (human S1P1) [nM]	EC50 [1] [nM]	EC50 [2] [nM]	EC50 (hS1P1/CHO cells) [nM]
N[C@]1(COP(=O)(O)O)CC[C@H](c2ccc3c(c2)CC[C@H](C[S+]([O-])c2ccccc2)C3)C1 (stereo partly drawn) [Example 667, ((1R,3S)-1-amino-3-((6S)-6-((phenylsulfinyl)methyl)-5,6,7,8-tetrahydronaphthalen-2-yl)cyclopentyl)methyl dihydrogen phosphate]	100 to 1000	100 to 1000	> 625	100 to 1000
CCCCOC[C@@H]1COc2cc([C@H]3CC[C@](N)(COP(=O)(O)O)C3)ccc2O1 [compound 414]	< 10	10 to 100	> 625	1000 to 10000
CCCCOC[C@@H]1COc2cc([C@@H]3CC[C@](N)(COP(=O)(O)O)C3)ccc2O1 [compound 415]	10 to 100	10 to 100	> 625	10 to 100
CCCCCCN1CCc2cc([C@@H]3CC[C@](N)(COP(=O)(O)O)C3)ccc2C1=O [compound 417]	10 to 100	100 to 1000	> 625	< 10
CCCCCCC1CCc2cc([C@@H]3CC[C@](N)(COP(=O)(O)O)C3)ccc2O1 (stereo partly drawn) [compound 420]	10 to 100	10 to 100	> 625	1000 to 10000
CCCCCCC1Cc2ccc([C@H]3CC[C@](N)(COP(=O)(O)O)C3)cc2CO1 (stereo partly drawn) [compound 421]	< 10	< 10	> 625	< 10
CCCCCC[C@@H]1COc2cc([C@@H]3CC[C@](N)(COP(=O)(O)O)C3)ccc2C1 [compound 423]	100 to 1000	100 to 1000	> 625	10 to 100
CCCCCC[C@H]1COc2cc([C@H]3CC[C@](N)(COP(=O)(O)O)C3)ccc2C1 [compound 424]	10 to 100	10 to 100	> 625	< 10
CCCCCC[C@H]1COc2cc([C@@H]3CC[C@](N)(COP(=O)(O)O)C3)ccc2C1 [compound 425]	< 10	< 10	> 625	< 10
CCCCCC[C@H]1Cc2ccc([C@H]3CC[C@](N)(COP(=O)(O)O)C3)cc2CO1 [compound 426]	10 to 100	< 10	> 625	< 10
CCCCCC[C@@H]1Cc2ccc([C@H]3CC[C@](N)(COP(=O)(O)O)C3)cc2CO1 [compound 427]	10 to 100	< 10	> 625	< 10
CCCCCCC[C@H]1Cc2ccc([C@H]3CC[C@](N)(COP(=O)(O)O)C3)cc2CO1 [compound 428]	< 10	< 10	> 625	10 to 100
CCCCCO[C@@H]1CCc2cc([C@H]3CC[C@](N)(COP(=O)(O)O)C3)ccc2C1 [compound 430]	10 to 100	10 to 100	> 625	< 10
CCCCCO[C@H]1CCc2cc([C@H]3CC[C@](N)(COP(=O)(O)O)C3)ccc2C1 [compound 431]	10 to 100	100 to 1000	> 625	< 10
CCCCCCCOC1CCc2cc([C@H]3CC[C@](N)(COP(=O)(O)O)C3)ccc2C1 (stereo partly drawn) [compound 432]	< 10	< 10	> 100	10 to 100
